According to publication PMC10470491, “Modulation of the functional interfaces between retroviral intasomes and the human nucleosome” (mBio, 2023):
Read-outs that look alike come from different tables or passages of the source.

What was measured:
[1] = tested on: PFV intasome/nucleosome complex; assay: AlphaLISA PFV intasome/nucleosome interaction assay; type: binding, prototype foamy virus (PFV); human mononucleosome
Experimental: AlphaLISA is a technology particularly suitable for bimolecular inhibitor screening assays using protein-protein interactions with purified recombinant proteins. The AlphaLISA assay development was performed in 96-well 12 area Alphaplate (reference 6052340, PerkinElmer, Waltham, MA, USA) with a final reaction volume of 40 µL. Cross-titration experiments of biotinylated MN (0–50 nM) against DIG-intasome (0–100 nM) were carried out to establish optimal assay concentrations for the binding assay. Ten microliters of each protein were diluted in the binding buffer 50 mM BisTris-propane pH 7, 100 mM NaCl, 0.1% (v/v) Tween-20, 0.1% (w/v) BSA, and 1 mM dithiothreitol. The plate was incubated at RT for 2 h in rotation. Ten microliters of anti-DIG acceptor beads (PerkinElmer, reference AL113) were then added, and after 1 h of incubation at RT with rotation, 10 µL of streptavidin […] (Perkin Elmer, reference 6760002) was mixed to the wells. This established a final concentration of 20 µg/mL for each bead. The plate was then incubated for 1 h at RT in the dark before the AlphaLISA signal was detected using an EnSpire Multimode Plate Reader (PerkinElmer). Negative control with binding buffer or only with one of the complexes was used to control the assay quality. Data were analyzed with GraphPad Prism 5.01 software. To evaluate tolerance for DMSO, the assay was performed as described above with an addition of 0.15–20% (v/v) of DMSO during the binding step. For the competition experiment, increasing concentrations of untagged intasome were titrated out in the 1-nM DIG-intasome/biotinylated nucleosome interaction assay.
For the AlphaLISA screening assay with the NIH OncoSET library, the binding conditions were optimized for use in 384-well plate (Optiplate, reference 6007290, PerkinElmer) with the same concentrations for complexes and beads in a final reaction volume of 20.5 µL (2.5% DMSO final concentration). The screening was first carried out with 25 µM of each compound pre-incubated for 1 h with 1 nM intasome/nucleosome complexes. Compounds were selected as inducing at least 50% decrease of the AlphaLISA signal control condition, and their inhibitory effect was further tested using dose-response curves. For compounds validation, counter select assay was performed using a short DNA fragment carrying a biotin and a DIG tag on each side. The AlphaLISA signal was monitoring using increasing concentrations of the double-tagged DNA, and the selected compounds were tested in optimized conditions at 10 µM. Any compound that causes decreased signal means that it interferes with AlphaLISA readout, and therefore, it is not relevant to this assay.

histone tails = biological target: histone tails; parameters: method as in PMID 26503405; conditions: ref [18]; cited from earlier work
[2] = tested on: HIV-1 intasome (vDNA•IN•LEDGF/p75); assay: in vitro HIV-1 concerted integration onto mononucleosome; type: biochemical
PFV intasome = PFV intasome (Human spumaretrovirus, UniProt P14350); assay: biochemical; type: biochemical, prototype foamy virus (PFV); parameters: Briefly, PFV IN and its cognate vDNA were mixed, and assembled intasomes were purified by size exclusion chromatography; octamers produced in E. coli; conditions: for inhibition of PFV integration into MNs: 30 nM FITC PFV intasome, MN, drugs 0–25 µM
Experimental: Integration assays using purified assembled intasomes were performed as followed: either 100 ng of naked DNA or 100 ng of DNA assembled on 100 ng of histone octamers (24 nM final concentration) was incubated with 30 nM final concentration of purified intasome in 100 mM NaCl, 20 mM BTP pH 7, 12.5 mM MgSO4 (for PFV intasome), or in 20 mM HEPES pH 7, 7.5% DMSO, 8% PEG, 10 mM MgCl2, 20 µM ZnCl2, 100 mM NaCl, 5 mM DTT final concentration (for HIV-1 intasome) in a final volume of 40 µL. The mix was then incubated at 37°C for 15 min and 1 h, respectively. Then, reaction was stopped by the addition of 5.5 µL of a mix containing 5% SDS and 0.25 M EDTA and deproteinized with proteinase K (Promega) for 1 h at 37°C. Nucleic acids were then precipitated with 150 µL of ethanol overnight at −20°C. Samples were then spun at top speed for 1 h at 4°C, and the pellets were dried and then resuspended with DNA loading buffer. Integration products were separated on an 8% native polyacrylamide gel.

HIV-1 intasome = conditions: MN assembled onto natural DO2 sequence
HIV-1 subtype B virus [3] = assay: qPCR quantification of viral DNA populations in infected PBMCs; type: cell-based
[4] = tested on: Vpr-BLaM containing NL-4.3 or NL-4.3Δenv-VSV-G viruses; type: cell-based, HIV-1
HIV-1 subtype B virus [5] = assay: HIV-1 infection assay in PBMCs (HIV-1 RNA in supernatant); type: cell-based; conditions: Human immunodeficiency virus 1, PBMC, read-out: IC50 of HIV-1 replication
Experimental: PBMCs were isolated from blood samples using Ficoll-Hypaque gradient centrifugation. After separation, PBMCs were pelleted by centrifugation. […] Next, PBMCs were harvested (7 min, 400 × g) and resuspended in 500 µL culture medium. […] Then, the medium was removed, and 10 mL of RPMI 1640 was added to wash the cells. The cells were harvested at low speed (400 × g), and the washed-cell pellet was resuspended in 2 mL of supplemented RPMI 1640. The cell suspension was added to wells of a 24-well tissue culture plate and incubated at 37°C. HIV-1 RNA from plasma samples was determined at 24, 48, and 72 h postinfection.

mononucleosome (MN) = assay: histone eviction assay (EMSA / SDS-PAGE); type: biochemical, human; conditions: 10 µM or increasing concentrations

O=S(=O)(O)c1cc2c(O)c(c1)Cc1cc(S(=O)(=O)O)cc(c1O)Cc1cc(S(=O)(=O)O)cc(c1O)Cc1cc(S(=O)(=O)O)cc(c1O)C2 [CA1]
inhibition of intasome/nucleosome association in AS ([1]; increasing drug concentrations): less efficient in inhibiting the association | Kd (histone tails): 17.8 to 20.4 µM | IC50 ([2]; Table 4, title: in vitro HIV-1 integration inhibition, read-out: Integration IC50): > 1000 nM | inhibition of PFV integration into MNs (PFV intasome): inefficient in our assay

COc1cccc2c1C(=O)c1c(O)c3c(c(O)c1C2=O)C[C@@](O)(C(=O)CO)C[C@@H]3O[C@H]1C[C@H](N)[C@H](O)[C@H](C)O1 [Doxorubicin, doxorubicin]
inhibition of HIV-1 integration into DO2 nucleosome (HIV-1 intasome): as efficient in inhibiting the HIV-1 integration into DO2 nucleosome than onto the 601 nucleosome | effect on total viral DNA (HIV-1 subtype B virus [3]; 20 h postinfection): no effect | effect on integrated DNA (HIV-1 subtype B virus [3]; infected PBMCs): decreased | effect on two-LTR circles (HIV-1 subtype B virus [3]; infected PBMCs): increased | effect on viral fusion / entry [4]: did not affect this early entry step | decrease in the AS signal ([1]; OncoSET screen, 25 µM drug, 1 nM of each partner): at least 50% | IC50 ([1]; intasome/nucleosome AS assay, increasing drug concentrations, Fig. 3E): 870 ± 40 nM | effect on the intasome/nucleosome AS signal ([1]; retest at 10 µM, MN): strong inhibitory effect | IC50 ([2]; preformed HIV-1 intasome, MN, read-out: IC50 of in vitro HIV-1 integration): ~300 nM | IC50 ([2]; preformed HIV-1 intasome, native MN (601), read-out: IC50 of in vitro HIV-1 integration): < 1000 nM | IC50 (HIV-1 subtype B virus [5]): 2 to 20 nM | IC50 (PFV intasome): < 1000 nM | inhibition of PFV integration into MNs (PFV intasome): able to inhibit PFV integration into MNs | cytotoxicity (PBMC cells): poor cytotoxicity | histone eviction / MN dissociation (mononucleosome (MN)): full shift of the nucleosomal DNA in addition to a strong MN dissociation
